Measured values reported in EP2137192B1, “Derivatives of galantamine as pro-drugs for the treatment of human brain diseases” (priority 2008, dated 2009).

What was measured:
[1] = in vivo; conditions: for Co (Brain), highest pro-galantamine concentration achieved in mouse brain: i.v. injection of 3 mg/kg, for Gal: galantamine after the same amount of galantamine; for Kp: in vivo
Description: In table 1, the key pharmacokinetic data of benzoyl-galantamine, of several other R1-pro-galantamines and of galantamine (for comparison) are listed. Table 1: Pharmacokinetic data of several R1-pro-galantamines in the mouse
Co is the highest pro-galantamine concentration (ng/ml) achieved in mouse brain after i.v. injection of 3 mg/kg of pro-galantamine. R-Pro ist he brain-to-blood concentration ratio of pro-galantamine, R-Gal that of galantamine under these experimental conditions. For comparison, Co and R-Gal are also provided for i.v. injection of the same amount of galantamine.
• Figure 1: Brain esterase inhibition by galantamine and several pro-galantamines. A 20% mouse brain homogenate was used, supplemented with 200 µM of acetylthiocholine as substrate, and the initial reaction kinetics were measured according to Riddles PW, Blakeley RL, Zerner B., "Reassessment of Ellman's reagent." Methods Enzymol. 1983;91:49-60. […] In derivative Gln 1063 R1 in formula I is -O-Si(CH3)2-C(CH3)2-C(CH3)2H. • Figure 2: Enzymatic cleavage of pro-galantamine to galantamine. Butyrylcholinesterase, 25 units/ml, was used. Reaction temperature was 37°C. Appearance of the fluorescent reaction product galantamine was determined by fluorescence detection. • Figure 3: Interaction of galantamine and pro-galantamine with a4ß2 neuronal nicotinic acetylcholine receptor ectopically expressed in HEK-293 cells. The increase in response to acetylcholine in the presence of galantamine and Gln-1062, respectively, was determined by whole-cell patch clamp recording. […] Scopolamine induces a memory deficit that can be measured by […] alternation in a T-maze trial. The cognition enhancing drugs were i.p. injected at several different doses together with scopolamine 20 min before a T-maze trial. Recovery was measured as a function of dose, and the EC50 was determined for each drug.
Determination of the pharmacokinetic profiles of Gln-1062 and its cleavage product galantamine in blood and brain. Determine the brain-to-blood concentration ratios of Gln-1062 and its cleavage product galantamine, and assess the blood-brain barrier penetration capacities.
Blood samples were collected from the retro-orbital plexus. 0.5 ml of blood was collected into a pre-labeled polypropylene micro centrifuge tube containing sodium citrate as the anticoagulant, and kept on ice.
Immediately after blood withdrawal, brain was perfused with phosphate buffer saline (pH 7.4), removed and frozen on dry ice.
Brain samples were thawed on ice and weighed. An appropriate volume ice cold homogenizing media (methanol: water::20:80,v/v) added. On ice, homogenized the brain sample with the polytron homogenizer and make up the volume with homogenizing media to get 1 gm of brain per 4 mL of homogenate. After homogenizing, immediately freezed the brain homogenate samples at -80°C until analysis.

[2] = logP (partition coefficient); type: physicochemical; conditions: source of the values not stated
Source text: "logP" is defined as the decadic logarithm of the partition coefficient P which is the ratio of […], as the neutral molecule.

[3] = target: T1, a4ß2 neuronal nicotinic acetylcholine receptor (Homo sapiens, UniProt P17787+P43681); experiment: Allosteric potentiation of nAChR in HEK-293 cells, whole-cell patch clamp; type: cell-based; conditions: increase in response to acetylcholine, Figure 3
T1 construct: expressed in transfected cells; host or cells: HEK-293
Description: (§1) 1983;91:49-60. […] Butyrylcholinesterase, 25 units/ml, was used. Reaction temperature was 37°C.
Investigation of the allosteric modulation effect of drug candidates on nicotinic acetylcholine receptors (nAChRs) expressed in HEK-293 cells by electrophysiology. Results shown as figure 3
Single HEK-293 cells expressing either human α4β2, human α3β4, or chimeric chicken α7 (with mouse 5HT3) nAChR were plated on fibronectin-coated cover slips for 3 days before measurement. The selected nAChR containing cells were placed in the recording bath, filled with extracellular buffer (145 mM NaCl, 5 mM KCl, 1 mM MgCl2, 2 mM CaCl2, 10 mM D-glucose, 10 mM HEPES, pH 7.3, approximately 300 mOsm). […] A programmable puller (Sutter, USA) was used to prepare a twin pair of ready for use pipettes. […] 1, 5, 10, 50, 100, 500, 1,000, 5,000 and 10,000 nM, and solutions were applied to the cell surface during 500 ms pulses through the U-tube, and then corresponding currents, digitized to 10 kHz, were recorded for 10 s. […] The averaged peak amplitudes of the currents, measured in the presence of selected compound concentrations, were compared with those determined in the absence of compounds (control) and they were calculated as % of control. […]

[4] = galantamine administered as the unmodified drug; cited from earlier work
[5] = target: T2, brain cholinesterase (Mus musculus, UniProt P21836); experiment: Inhibition of brain esterase, modified Ellman test in mouse brain homogenate; type: biochemical; conditions: 20% mouse brain homogenate, 200 µM acetylthiocholine; Figure 1
T2 construct: from tissue; host or cells: mouse brain homogenate
T2 sequence (P21836 32-614): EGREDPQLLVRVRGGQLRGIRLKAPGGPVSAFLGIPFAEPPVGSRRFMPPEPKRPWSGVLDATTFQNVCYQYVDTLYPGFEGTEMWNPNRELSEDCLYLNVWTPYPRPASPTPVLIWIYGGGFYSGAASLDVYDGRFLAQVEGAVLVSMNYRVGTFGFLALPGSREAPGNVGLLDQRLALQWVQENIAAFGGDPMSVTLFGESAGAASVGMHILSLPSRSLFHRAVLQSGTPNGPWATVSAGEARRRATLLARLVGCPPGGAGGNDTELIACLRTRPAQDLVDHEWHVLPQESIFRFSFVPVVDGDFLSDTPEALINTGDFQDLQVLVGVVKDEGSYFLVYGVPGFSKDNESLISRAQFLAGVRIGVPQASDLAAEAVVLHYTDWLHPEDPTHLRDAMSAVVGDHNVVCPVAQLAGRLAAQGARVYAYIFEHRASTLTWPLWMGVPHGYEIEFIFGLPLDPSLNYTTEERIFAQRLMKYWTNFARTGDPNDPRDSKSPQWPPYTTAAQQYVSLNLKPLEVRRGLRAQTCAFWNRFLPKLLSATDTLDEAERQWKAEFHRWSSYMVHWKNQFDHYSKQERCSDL
Description: as §1
The brain is removed from the animal (mouse), shock frozen in liquid nitrogen and stored at minus 80°C until use. Before preparing the extract, the frozen brain is thawed on ice and the weight is determined. Ice cold buffer (130 mM NaCl, 5 mM KCl, 2.5 mM CaCl2, 1 mM MgCl2, 5 mM Glucose, 5 mM HEPES, pH 7.4) is added to the thawed mouse brain (1:4, weight to volume, resulting in a 20 % brain homogenate). The tissue is then homogenized in a potter homogeniser on ice, moving the piston up and down 11 times at 240 rpm. The freshly prepared mouse brain homogenate is divided into aliquots.
A modified Ellmann's esterase test is used. Briefly the method relies on the cleavage of the substrate acetylthiocholine to acetate and thiocholine. […] The inhibition is expressed as per cent of the non inhibited reaction according to following equation: % Inhibition = 100*(1-(Slopeinhibited/Slopenoninhibited)). […]

[6] = Reversal from scopolamine-induced amnesia in mice (T-maze alternation); type: in vivo; conditions: i.p., Figure 6
Description: as §1
Gln 1062, Gln 0979 and galanthamine were dissolved in 15% -hydroxypropyl-β-cyclodextrin in 96 mM NaCl (isotonic) supplied by the sponsor. Gln 1062 and Gln 0979 were used in concentrations of […], 0.03, 0.1 and 0.2 mg/ml, which when given in a volume of 10 ml/kg result in doses of 0.1, 0.3, 1 and 2 mg/kg i.p., respectively. Galanthamine was used in concentrations of 0.03, 0.1, 0.2 and 0.5 mg/ml, which when given in a volume of 10 ml/kg result in doses of 0.3, 1, 2 and 5 mg/kg i.p., respectively. Control animals received 15% -hydroxypropyl-β-cyclodextrin in 96 mM NaCl injection as a vehicle. […]
The potential cognitive enhancing property of Gln 1062, Gln 0979 and galanthamine were evaluated in scopolamine-treated mice in the T-maze alternation model under the same experimental conditions. […]
Memory performance was assessed by the percentage of spontaneous alternation in the T-maze. […]
The percentage of alternation over the 14 free-choice trials was determined for each mouse and was used as an index of working memory performance. […]
Analysis of variance (ANOVA) was performed on the result data. […] The drug induced reversion of scopolamine-induced memory deficit was calculated by setting the respective response of the saline/vehicle group as 100% and the scopolamine/vehicle group as 0% reversion. […]

T1 sequence (P43681 29-627 limits assumed): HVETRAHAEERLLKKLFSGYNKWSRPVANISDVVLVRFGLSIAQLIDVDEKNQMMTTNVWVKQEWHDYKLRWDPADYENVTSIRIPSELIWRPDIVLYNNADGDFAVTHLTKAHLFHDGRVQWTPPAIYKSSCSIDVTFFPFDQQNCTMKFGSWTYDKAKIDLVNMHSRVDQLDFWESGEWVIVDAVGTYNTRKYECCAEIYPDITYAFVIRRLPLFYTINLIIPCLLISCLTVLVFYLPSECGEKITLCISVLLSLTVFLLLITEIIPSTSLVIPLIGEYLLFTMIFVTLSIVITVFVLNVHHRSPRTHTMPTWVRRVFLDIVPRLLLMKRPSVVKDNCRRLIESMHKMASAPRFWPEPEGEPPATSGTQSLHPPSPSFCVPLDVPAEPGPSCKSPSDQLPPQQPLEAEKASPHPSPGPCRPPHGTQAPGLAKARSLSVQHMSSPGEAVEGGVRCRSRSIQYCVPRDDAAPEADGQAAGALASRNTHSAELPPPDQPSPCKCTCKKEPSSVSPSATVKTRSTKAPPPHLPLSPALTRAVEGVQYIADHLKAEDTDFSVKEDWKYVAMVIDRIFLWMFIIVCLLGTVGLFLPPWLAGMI
T1 sequence (P17787 26-502): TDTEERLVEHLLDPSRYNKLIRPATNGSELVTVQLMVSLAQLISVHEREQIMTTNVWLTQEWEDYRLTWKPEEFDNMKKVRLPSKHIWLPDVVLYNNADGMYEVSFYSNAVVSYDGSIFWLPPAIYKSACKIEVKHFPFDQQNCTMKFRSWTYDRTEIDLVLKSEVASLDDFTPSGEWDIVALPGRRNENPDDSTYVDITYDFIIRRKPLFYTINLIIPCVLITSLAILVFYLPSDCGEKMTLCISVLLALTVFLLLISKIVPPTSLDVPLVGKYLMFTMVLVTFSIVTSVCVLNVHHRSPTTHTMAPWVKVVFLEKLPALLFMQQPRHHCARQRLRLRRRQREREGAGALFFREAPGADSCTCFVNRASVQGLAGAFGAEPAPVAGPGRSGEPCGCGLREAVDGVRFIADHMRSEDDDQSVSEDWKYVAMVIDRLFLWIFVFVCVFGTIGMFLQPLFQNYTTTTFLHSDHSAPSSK

| SMILES | Co (Brain), highest pro-galantamine concentration achieved in mouse brain [1] [ng/mL] | Kp ([1]; mouse) | Kp ([1]; mouse, iv, 3 mg/kg) | logP [2] | maximal enhancement of response [3] | brain-to-plasma ratio [4] | brain-to-blood concentration ratio (RBB-proGal) ([1]; mice) | concentration in blood at start of curve ([1]; mouse blood, 3mg/kg, Figure 4b) | R-Pro, brain-to-blood concentration ratio of pro-galantamine ([1]; mouse, i.v. 3 mg/kg of pro-galantamine) | R-Gal, brain-to-blood concentration ratio of galantamine ([1]; mouse, i.v. 3 mg/kg of pro-galantamine, for Gal: same amount of galantamine) | inhibition of brain esterase [5] | efficacy in reversing scopolamine-induced amnesia relative to galantamine [6] |
| --- | --- | --- | --- | --- | --- | --- | --- | --- | --- | --- | --- | --- |
| COc1ccc2c3c1O[C@H]1C[C@@H](O)C=C[C@@]31CCN(C)C2 [Gal, galantamine] | 1741 | ~1.3 | 1.2 | 1.7 | ~ 40% | ~ 1.3 |  |  |  |  |  |  |
| COc1ccc2c3c1O[C@H]1C[C@@H](OC(=O)c4ccccc4)C=C[C@@]31CCN(C)C2 [Gln 1062, (4aS,6R,8aS)-4a,5,9,10,11,12-Hexahydro-3-methoxy-11-methyl-6H-benzofuro[3a,3,2-ef][2]benzazepin-6-ol, benzoate (ester)] | 4812 |  |  | 3 | ~ 17% |  | > 19 | about 0.3 µg/g | 19.3 | 2.2 | little, if any cholinesterase inhibitory activity | approximately 4 times |
